In the NIST ThermoML archive (doi:10.1021/je3008974):

Details: Liquid

F/C=C/C(F)(F)F [trans-1,3,3,3-tetrafluoropropene]
Details	mass density [kg/m3]
285.5 K, 1018.5 kPa, isochoric method	1205.5
286.92 K, 2021.5 kPa, isochoric method	1205.4
288.32 K, 3010.5 kPa, isochoric method	1205.3
289.41 K, 3779.9 kPa, isochoric method	1205.2
291.42 K, 20124 kPa, isochoric method	1254.7
291.45 K, 5221.8 kPa, isochoric method	1205
298.03 K, 1062.5 kPa, isochoric method	1165.6
298.14 K, 9928.4 kPa, isochoric method	1204.5
298.15 K, 2000 kPa, Pycnometric method	1170.52
299.62 K, 2045.7 kPa, isochoric method	1165.5
301.21 K, 3025.5 kPa, isochoric method	1165.3
302.81 K, 4026.8 kPa, isochoric method	1165.2
304.38 K, 4991.3 kPa, isochoric method	1165.1
305.08 K, 14792 kPa, isochoric method	1203.9
312.4 K, 1349.3 kPa, isochoric method	1117.7
312.58 K, 10069 kPa, isochoric method	1164.5
312.58 K, 19938 kPa, isochoric method	1203.3
313.7 K, 2032.5 kPa, isochoric method	1117.6
315.61 K, 3038.9 kPa, isochoric method	1117.5
317.51 K, 4033.2 kPa, isochoric method	1117.4
319.6 K, 5142.9 kPa, isochoric method	1117.2
319.8 K, 24935 kPa, isochoric method	1202.7
320.41 K, 14882 kPa, isochoric method	1163.9
327 K, 29927 kPa, isochoric method	1202.2
328.71 K, 2042.5 kPa, isochoric method	1060.1
328.71 K, 9986.8 kPa, isochoric method	1116.5
328.72 K, 19949 kPa, isochoric method	1163.2
330.83 K, 2963.3 kPa, isochoric method	1060
333.13 K, 3964.2 kPa, isochoric method	1059.8
334.34 K, 34952 kPa, isochoric method	1201.6
335.43 K, 4968.4 kPa, isochoric method	1059.7
336.83 K, 24924 kPa, isochoric method	1162.6
337.81 K, 14797 kPa, isochoric method	1115.9
341.91 K, 40043 kPa, isochoric method	1201
345.09 K, 29935 kPa, isochoric method	1162
346.84 K, 9943.4 kPa, isochoric method	1058.9
347.53 K, 19908 kPa, isochoric method	1115.2
353.15 K, 12717 kPa, isochoric method	1058.5
353.15 K, 22854 kPa, isochoric method	1114.8
353.15 K, 34806 kPa, isochoric method	1161.4

FC(F)(F)I [trifluoroiodomethane]
Details	mass density [kg/m3]
207.79 K, 10925 kPa, isochoric method	2455.5
210.4 K, 14322 kPa, isochoric method	2455
214.87 K, 20130 kPa, isochoric method	2454.2
214.92 K, 1055.7 kPa, isochoric method	2401.1
215.96 K, 2305 kPa, isochoric method	2400.9
216.71 K, 3175.5 kPa, isochoric method	2400.7
217.73 K, 4381.5 kPa, isochoric method	2400.5
218.37 K, 5116.4 kPa, isochoric method	2400.4
218.48 K, 25008 kPa, isochoric method	2453.5
222.4 K, 29924 kPa, isochoric method	2452.8
222.62 K, 10052 kPa, isochoric method	2399.6
226.21 K, 34684 kPa, isochoric method	2452.1
226.99 K, 15121 kPa, isochoric method	2398.8
229.95 K, 39202 kPa, isochoric method	2451.5
231.25 K, 20002 kPa, isochoric method	2398.1
231.74 K, 1109.5 kPa, isochoric method	2334.8
233.57 K, 2990.1 kPa, isochoric method	2334.5
234.66 K, 4114 kPa, isochoric method	2334.3
235.46 K, 4930.4 kPa, isochoric method	2334.1
235.5 K, 24985 kPa, isochoric method	2397.3
239.91 K, 29944 kPa, isochoric method	2396.6
240.52 K, 10116 kPa, isochoric method	2333.3
244.17 K, 34707 kPa, isochoric method	2395.8
245.45 K, 15114 kPa, isochoric method	2332.4
248.78 K, 39783 kPa, isochoric method	2395.1
250.46 K, 20143 kPa, isochoric method	2331.6
251.97 K, 1975.5 kPa, isochoric method	2256.4
253.21 K, 3063.1 kPa, isochoric method	2256.2
254.16 K, 3884.4 kPa, isochoric method	2256
255.27 K, 4873.4 kPa, isochoric method	2255.8
255.32 K, 25028 kPa, isochoric method	2330.8
260.19 K, 29834 kPa, isochoric method	2330
261.5 K, 10373 kPa, isochoric method	2254.8
265.13 K, 34684 kPa, isochoric method	2329.2
266.41 K, 776 kPa, isochoric method	2188.5
266.75 K, 1052.9 kPa, isochoric method	2188.4
267.06 K, 15109 kPa, isochoric method	2253.2
267.97 K, 1992.8 kPa, isochoric method	2188.2
269.24 K, 2976.2 kPa, isochoric method	2188
270.53 K, 3984.6 kPa, isochoric method	2187.8
270.93 K, 40330 kPa, isochoric method	2328.3
272.12 K, 5216.5 kPa, isochoric method	2187.6
272.85 K, 20116 kPa, isochoric method	2252.3
278.48 K, 25009 kPa, isochoric method	2252.2
278.49 K, 10098 kPa, isochoric method	2186.6
278.5 K, 24979 kPa, isochoric method	2251.5
284.17 K, 29780 kPa, isochoric method	2250.6
284.36 K, 940.5 kPa, isochoric method	2105.8
285.08 K, 15134 kPa, isochoric method	2185.7
285.92 K, 1976.8 kPa, isochoric method	2105.6
287.34 K, 2905.5 kPa, isochoric method	2105.4
288.88 K, 3930.3 kPa, isochoric method	2105.2
290.4 K, 34997 kPa, isochoric method	2249.7
290.43 K, 4950.8 kPa, isochoric method	2104.9
291.69 K, 20129 kPa, isochoric method	2184.7
296.15 K, 39750 kPa, isochoric method	2248.8
297.94 K, 861.4 kPa, isochoric method	2038.1
298.14 K, 10026 kPa, isochoric method	2103.9
298.15 K, 2000 kPa, Pycnometric method	2046.84
298.15 K, 25035 kPa, isochoric method	2183.8
300.01 K, 2068.2 kPa, isochoric method	2037.9
301.75 K, 3070.1 kPa, isochoric method	2037.6
303.44 K, 4061.6 kPa, isochoric method	2037.4
304.54 K, 29729 kPa, isochoric method	2182.8
305.17 K, 5069.5 kPa, isochoric method	2037.2
305.56 K, 14805 kPa, isochoric method	2102.8
311.69 K, 35046 kPa, isochoric method	2181.8
313.22 K, 982.5 kPa, isochoric method	1957.5
313.53 K, 19969 kPa, isochoric method	2101.8
313.58 K, 9932.8 kPa, isochoric method	2036.1
315.12 K, 1958.3 kPa, isochoric method	1957.3
317.18 K, 2990.2 kPa, isochoric method	1957
318.54 K, 40060 kPa, isochoric method	2180.9
319.17 K, 3976.2 kPa, isochoric method	1956.8
321.22 K, 5005.2 kPa, isochoric method	1956.5
321.68 K, 25300 kPa, isochoric method	2100.7
322.38 K, 14998 kPa, isochoric method	2034.9
328.99 K, 1994.4 kPa, isochoric method	1875.8
329.49 K, 30240 kPa, isochoric method	2099.6
331.3 K, 2985.8 kPa, isochoric method	1875.6
331.3 K, 10058 kPa, isochoric method	1955.3
331.31 K, 20061 kPa, isochoric method	2033.8
333.64 K, 3972.3 kPa, isochoric method	1875.3
336 K, 4985.7 kPa, isochoric method	1875
337.32 K, 35169 kPa, isochoric method	2098.6
340.45 K, 25264 kPa, isochoric method	2032.6
341.64 K, 15161 kPa, isochoric method	1954
343.84 K, 39291 kPa, isochoric method	2097.7
353.14 K, 20828 kPa, isochoric method	1952.6
353.15 K, 12322 kPa, isochoric method	1873
353.15 K, 32431 kPa, isochoric method	2031
